Our source for the cytotoxicity values is ChEMBL document CHEMBL3507680, “University of Dundee, Gates Library screen for HepG2 cell viability”.

The data set is described as follows: Human HepG2 cell viability assay in 384 well format. Type of data set: toxicity, cell-based. Also noted: dose 125 nL, time 70.5 hour; cytotoxicity at 70.5 h: concentration not given beside the values. As to conditions: HepG2 cells, read-out: Inhibition.

In the case of `CC(C)N(C)Cc1cc(=O)n2c(n1)CN(C(=O)c1ccc[nH]1)CCC2`, the cytotoxicity at 70.5 h was 0.329%.

On to `Cc1cccc(CN2C[C@@H]3CN(C(=O)C4CCOC4)C[C@@H]3C2=O)c1` (stereo not given in full), for which the cytotoxicity at 70.5 h stood at 2.05%.

On to `O=C(C1CCOC1)N1C[C@H]2CN(Cc3cccc(F)c3)C(=O)[C@H]2C1` (stereo not given in full), for which the cytotoxicity at 70.5 h is -0.77%.

For `Cc1cccc(CN2CCC3(CC2)COC(COCC2CC2)C3)n1` (stereo not given), the cytotoxicity at 70.5 h was -6.77%.

For `COc1cc(N2CCN(CC3CC3)c3nc(C)ccc3C2)ncn1`, the cytotoxicity at 70.5 h was found to be 0.313%.

As for `Cc1csc(CN2CCC3(CC2)COC(COc2ccccn2)C3)n1` (stereo not given), the cytotoxicity at 70.5 h was -5.82%.

For the compound `Cn1nccc1-c1cnc2n1CCNC21CCN(C(=O)C2(C)CC2)CC1`, the cytotoxicity at 70.5 h is -9.28%.

In the case of `CCS(=O)(=O)N1CCc2c(COC)cncc2C1`, the cytotoxicity at 70.5 h was 17.2%.

Consider `CC(C)n1c2ccccc2c2c1cc(C(=O)N(C)C)n2S(C)(=O)=O`, for which the cytotoxicity at 70.5 h was found to be 13.1%.

As for `CNC(=O)NCC1CCC2(CCN(C(=O)c3ccccc3)CC2)CO1` (stereo not given), the cytotoxicity at 70.5 h was -2.1%.

Turning to `O=C(c1ccc[nH]1)N1CCCn2c(CN3CCCCC3)nnc2C1`, the cytotoxicity at 70.5 h was -5.4%.

For the compound `COc1cccc(N2CCN(C(=O)C(C)Oc3ccccc3)CC2=O)c1` (stereo not given), the cytotoxicity at 70.5 h is 20.9%.

Take `Cn1nnnc1SCCNC1CCN(c2ccc3c(c2)OCO3)CC1`: the cytotoxicity at 70.5 h was 4.51%.

On to `CSc1ncc(CN(C)C(C)c2cccnc2)cn1` (stereo not given), for which the cytotoxicity at 70.5 h is -0.91%.

Regarding `N[C@H]1CN(C(=O)Cc2ccc(CO)cc2)C[C@@H]1C1CC1`, the cytotoxicity at 70.5 h amounted to 34.3%.

Turning to `Cc1cncc(NC(=O)c2ccc(CN3CC[C@H](O)C3)cc2)c1`, the cytotoxicity at 70.5 h was 19.1%.

For the compound `CCOc1ncccc1CNc1cc(COC)ncn1`, the cytotoxicity at 70.5 h is 1.28%.

Take `COc1cc2nc(NCCN3CCNC3=O)cc(C)c2cc1OC`: the cytotoxicity at 70.5 h is -0.54%.

`CCOC(=O)C1(CCOC)CCN(Cc2nccn2CC)CC1`: the cytotoxicity at 70.5 h was -7.56%.

Consider `Cc1cc(C)n(CC(C)NC(=O)C2(c3ccccc3F)CC2)n1` (stereo not given), for which the cytotoxicity at 70.5 h is -7.8%.

Turning to `CC(C)Cc1nc(CN(C)c2cc(C(C)C)nc3ccnn23)no1`, the cytotoxicity at 70.5 h is -10.6%.

With `CN(Cc1cc(C(C)(C)C)n[nH]1)C(=O)c1c[nH]nc1-c1cccc(F)c1`, the cytotoxicity at 70.5 h was -8%.

As to `O=C(CC1CCCC1)N[C@H]1CN(Cc2c[nH]cn2)C[C@@H]1C1CC1`, the cytotoxicity at 70.5 h came to 20.4%.

Take `Cc1nc(O)cc(CCNC(=O)CN2CCCCCC2)n1`: the cytotoxicity at 70.5 h was 1.28%.

For `COCc1nc(NC(C)c2c(C)n[nH]c2C)c2cnn(C)c2n1` (stereo not given), the cytotoxicity at 70.5 h is -5.38%.

Turning to `Cc1cc(C(F)(F)F)nc(CNc2cc(C)nc3cc(C)nn23)n1`, the cytotoxicity at 70.5 h was -2.86%.

Regarding `CCN(Cc1nc(COC)no1)Cc1ccccc1OCC(=O)O`, the cytotoxicity at 70.5 h was found to be 20%.

With `Cc1ccsc1CN1CCC(c2nnc(Cn3cccn3)n2C)CC1`, the cytotoxicity at 70.5 h was -2.95%.

As to `Cc1ccc(CN2C[C@@H](C(=O)O)[C@H](c3cccnc3)C2)s1`, the cytotoxicity at 70.5 h stood at 1.41%.

Take `Cc1ncc(CN2CCN(C(=O)N(C)C)[C@@H]3CS(=O)(=O)C[C@@H]32)cn1`: the cytotoxicity at 70.5 h is -26.5%.

On to `NCC1Cc2cc(-c3cncc(C(=O)N4CCCCC4)n3)cc(F)c2O1` (stereo not given), for which the cytotoxicity at 70.5 h was -4.24%.

For `COCCc1noc(CN2CC(Cc3ccccc3)CC2=O)n1` (stereo not given), the cytotoxicity at 70.5 h is -20.5%.

On to `CC1(C)[C@H]2CC=C(CN3CCCn4nc(CNS(C)(=O)=O)cc4C3)[C@@H]1C2`, for which the cytotoxicity at 70.5 h was -8.88%.

In the case of `CN1CCN(S(=O)(=O)c2ccc(C(=O)N3CC[C@@H](O)C3)cc2)CC1=O`, the cytotoxicity at 70.5 h is -5.98%.

With `C=C(C)COc1cccc(C(=O)N2CCC3(CCOCC3)CC2)c1`, the cytotoxicity at 70.5 h was 3.55%.

As for `CC(=O)c1ccccc1-c1cc(C(=O)O)cc(S(=O)(=O)NC(C)C)c1`, the cytotoxicity at 70.5 h was -14.9%.

Regarding `CC(C)C[C@@H](C(N)=O)n1cc(-c2cncnc2)nn1`, the cytotoxicity at 70.5 h was -8.12%.

For the compound `OCc1ccc(CN(CCCn2ccnc2)Cc2ccncc2)o1`, the cytotoxicity at 70.5 h was -4.15%.

`O=C(c1cccc(-c2ccc(F)cc2)c1)N1CCCC(O)(CO)CC1` (stereo not given): the cytotoxicity at 70.5 h amounted to 9.52%.

For `CCC(=O)N1CCN(C(=O)c2ccc(OC)o2)[C@H]2CS(=O)(=O)C[C@H]21`, the cytotoxicity at 70.5 h is -4.25%.

Turning to `CN1CCN(C(=O)N2CC[C@@](O)(c3ccccc3)[C@H]3CCCC[C@@H]32)CC1`, the cytotoxicity at 70.5 h was -5.89%.

In the case of `Cc1cc(C(F)(F)F)nc(CCNc2nc(C)nc3sccc23)n1`, the cytotoxicity at 70.5 h stood at 15.7%.

In the case of `CN(Cc1cc(C(C)(C)C)n[nH]1)Cc1c[nH]nc1-c1ccc(F)cc1`, the cytotoxicity at 70.5 h was -4.87%.

Take `c1cncc(OC2CCN(CCn3cc4ccccc4n3)CC2)c1`: the cytotoxicity at 70.5 h was -25.2%.

With `COc1ccccc1OC1CN(C(=O)Cc2c(C)nc3ccccn23)C1`, the cytotoxicity at 70.5 h is 2.44%.

With `CN1CCCCC1Cc1nc2c(cc1C(N)=O)CCC2` (stereo not given), the cytotoxicity at 70.5 h is 13.7%.

`OCc1csc(N2CCCC(CO)(Cc3cccc(Cl)c3)C2)n1` (stereo not given): the cytotoxicity at 70.5 h is 12.4%.

Turning to `N#Cc1ccccc1C(=O)N1C[C@H]2CC[C@@H]1CN(c1ncccn1)C2`, the cytotoxicity at 70.5 h turned out to be 18.3%.

As to `COc1ccc([C@@H]2CN(c3cc(OC)nc(N)n3)C[C@H]2N(C)C)cc1`, the cytotoxicity at 70.5 h was -3.33%.

On to `COCc1nc(CNC2CCN(C(C)C)CC2)no1`, for which the cytotoxicity at 70.5 h was -8.15%.

For `CC(C)c1noc(-c2ccc(N(C)C3CCOCC3)nc2)n1`, the cytotoxicity at 70.5 h worked out at 10.8%.

In the case of `CN(C)C(C(=O)N1CCN(CCn2cccc2)CC1)c1ccc(F)cc1` (stereo not given), the cytotoxicity at 70.5 h was -3.42%.

With `c1ccc2c(c1)CC(N1CCCC(NCc3cccc4nonc34)C1)C2` (stereo not given), the cytotoxicity at 70.5 h is -9.28%.

For the compound `O=C(N[C@H]1CN2CCC1CC2)c1cc(Cn2cnc3ccccc32)[nH]n1`, the cytotoxicity at 70.5 h was -5.02%.

With `Cc1cc(CN2CCC(c3cc(Cc4ccccc4)n[nH]3)CC2)[nH]n1`, the cytotoxicity at 70.5 h was -16.6%.

As to `O=c1c2ccc(Cl)cc2ncn1CCCN1CCCCC1CO` (stereo not given), the cytotoxicity at 70.5 h was -15.5%.

For the compound `N[C@H]1CN(C(=O)Cc2ccc(Cl)c(Cl)c2)C[C@@H]1C1CC1`, the cytotoxicity at 70.5 h was found to be 13.6%.

Turning to `CCCn1c(C)c(CC(=O)NCCC(N)=O)c2c1CC(C)(C)CC2=O`, the cytotoxicity at 70.5 h worked out at 11.1%.

`c1cc(-c2cnccn2)cc(-c2ccn(CCCN3CCCCC3)n2)c1`: the cytotoxicity at 70.5 h is -7.3%.

As for `Cc1cc(C)c2c(N(C)CC3COCCO3)ncnc2n1` (stereo not given), the cytotoxicity at 70.5 h was -8.16%.

`O=C(O)c1ccccc1-c1c(-c2ccccc2)ncn1CC1CCCO1` (stereo not given): the cytotoxicity at 70.5 h worked out at 17.5%.

On to `CN(C)c1ccc(-c2ccnc3c2ccn3C)nn1`, for which the cytotoxicity at 70.5 h was 18.4%.

On to `O=C1CCC2(CCN(Cc3cscn3)CC2)CN1CC1CCCO1` (stereo not given), for which the cytotoxicity at 70.5 h worked out at 10.4%.

With `CCc1c(C)nn(CCNC(=O)c2cnn[nH]2)c1C`, the cytotoxicity at 70.5 h was -5.63%.

`Cc1ccccc1C1CCN(CCn2cc(-c3nccs3)nn2)C1` (stereo not given): the cytotoxicity at 70.5 h is 49.5%.

Consider `CCc1cc(N2CCS(=O)(=O)CC2)n2nc(C)c(C)c2n1`, for which the cytotoxicity at 70.5 h was -5.71%.

As for `N[C@@H](Cc1c[nH]cn1)C(=O)N1CCC(Oc2ccc(Cl)cc2)CC1`, the cytotoxicity at 70.5 h came out at 28.2%.

As to `C[C@@H]1CN(Cc2cc(C3CCCCC3)no2)CC[C@]1(C)O`, the cytotoxicity at 70.5 h is -6.92%.

For the compound `N#Cc1cccc(S(=O)(=O)N2CCCCC2CCN2CCCC2)c1` (stereo not given), the cytotoxicity at 70.5 h is -3.74%.

As for `CS(=O)(=O)N1CC[C@]2(O)CCN(c3ccnc(N)n3)C[C@@H]2C1`, the cytotoxicity at 70.5 h was -0.327%.

In the case of `COCCN1CCC2(CCC1=O)CN(c1ccnc(SC)n1)CCN2C` (stereo not given), the cytotoxicity at 70.5 h was -4.09%.

As for `Cc1cc(CN(C)c2nc(-c3ccco3)nc3c2CCN(C)CC3)on1`, the cytotoxicity at 70.5 h is -22.6%.

Turning to `CSc1ncc(C(=O)N2CCN(c3ccccc3C)CC2C)cn1` (stereo not given), the cytotoxicity at 70.5 h is -2.82%.

Take `COCCC(=O)N[C@H]1CC[C@H](Nc2nccc(-c3ccncc3)n2)C1`: the cytotoxicity at 70.5 h was -6.41%.

Regarding `OC1CCN(C2CCN(c3ccc(Cn4ccnc4)cn3)CC2)CC1`, the cytotoxicity at 70.5 h is -17.9%.

In the case of `c1cnn(CC2CCN(c3nc(C4CC4)nc4c3CCNCC4)CC2)c1`, the cytotoxicity at 70.5 h is -0.96%.

In the case of `CNC(=O)[C@@H]1C[C@@H](NC(=O)CCCc2cccs2)CN1C1CCOCC1`, the cytotoxicity at 70.5 h is -1.92%.

Regarding `CN(Cc1cnc2ccccc2c1)C(=O)C(c1ccccc1F)N(C)C` (stereo not given), the cytotoxicity at 70.5 h is -10.3%.

Turning to `COc1ccc(C(=O)N2C[C@@H](C(=O)O)[C@H](c3ccccc3)C2)c(O)c1`, the cytotoxicity at 70.5 h is -8.78%.

As for `CN(C)CC(=O)NC1CC(C)(C)Cc2nc(C(C)(C)C)ncc21` (stereo not given), the cytotoxicity at 70.5 h is 46.7%.

As for `Cc1c[nH]c(CN(C)C(=O)[C@@]23CNC[C@@H]2CN(c2ncccn2)C3)n1`, the cytotoxicity at 70.5 h is -14%.

`Cc1nccn1CCN(C)c1nc(-c2cccnc2)nc2c1CCNC2`: the cytotoxicity at 70.5 h is -3.49%.

Turning to `CCN1CCc2[nH]cnc2C12CCN(c1ncc(C(=O)O)cc1Cl)CC2`, the cytotoxicity at 70.5 h stood at 3.78%.

`CN(C)c1nc(NCCc2cnccn2)ncc1F`: the cytotoxicity at 70.5 h is -9.9%.

Turning to `COc1ccc(N2CCN(CC[C@H](O)c3ccccc3)CC2=O)cc1`, the cytotoxicity at 70.5 h was -12.7%.

Consider `c1cnc(NCc2cncc3c2CCN(CC2CC2)C3)nc1`, for which the cytotoxicity at 70.5 h came to 3.44%.

For the compound `Cc1nccc(NCc2cncc3c2CCN(CC2CC2)C3)n1`, the cytotoxicity at 70.5 h came to 9.03%.

Consider `CN(C)Cc1cc(=O)n2c(n1)CN(C(=O)c1ccc[nH]1)CCC2`, for which the cytotoxicity at 70.5 h is -2.94%.

Consider `CCN1CCC(c2nc3ccc(NC4CCC4)cn3n2)CC1`, for which the cytotoxicity at 70.5 h is -4.48%.

As for `CS(=O)(=O)NCc1cc(=O)n2c(n1)CN(CC1CC1)CCC2`, the cytotoxicity at 70.5 h is 7.49%.

Regarding `CCCN1CCC(c2nc3ccc(-c4cccc(OC)c4)cn3n2)CC1`, the cytotoxicity at 70.5 h was -1.57%.

As to `CCCS(=O)(=O)N1CCC2(CC1)CN(CC1CCOC1)c1ccccc12` (stereo not given), the cytotoxicity at 70.5 h is 3.95%.

As for `COCCN1CCN(c2ccc(C)nn2)Cc2ccc(C)nc21`, the cytotoxicity at 70.5 h is -3.87%.

With `Cn1nccc1-c1nnn2c1COCC(CNC1CCOCC1)C2` (stereo not given), the cytotoxicity at 70.5 h is 0.0787%.

`CCS(=O)(=O)N1CCc2c(COCCN(C)C)cncc2C1`: the cytotoxicity at 70.5 h was found to be 2.79%.
